Test results: patent US20130196980A1, “[…], […] AND THERAPEUTIC AGENT FOR FIBROMYALGIA” (AXIS INC., priority 2010, published 2013)

System: anti-VGKC complex antibody positive patient with fibromyalgia
Assay: Pain-relieving experiment by an anticonvulsant agent (patient pain VAS)
Format: in vivo, human
Conditions: patient B; clonazepam 1.5 mg orally; non-depression type fibromyalgia, anti-VGKC complex antibody more than 100 pM
Description: Pain-relieving experiments by an anticonvulsant agent for each anti-VGKC complex antibody positive patient with fibromyalgia
It is considered that the pain can be relieved by an anticonvulsant agent for an anti-VGKC complex antibody positive patient with fibromyalgia. Thus, for 3 patients (to whom a level of anti-VGKC complex antibody of more than 100 pM was detected) among 4 anti-VGKC complex antibody positive patients with fibromyalgia in Example 1, a pain-relieving experiment by an anticonvulsant agent for an anti-VGKC complex antibody positive patient with fibromyalgia was conducted. These patients were patients with fibromyalgia of non-depression type.
To patient A, gabapentine 900 mg and clonazepam 0.5 mg were orally administered. As a result, the value of patient pain VAS was reduced to 40 based on 100 before administration.
To patient B, clonazepam 1.5 mg was orally administered. As a result, the value of patient pain VAS was reduced to 30 based on 100 before administration.
To patient C, gabapentine 1600 mg and clonazepam 1.0 mg were orally administered. As a result, the value of patient pain VAS was reduced to 20 based on 100 before administration.

Compound: O=C1CN=C(c2ccccc2Cl)c2cc([N+](=O)[O-])ccc2N1 [clonazepam]
- value of patient pain VAS after administration, based on 100 before administration: 30
